The assay has as its target T1, xanthine oxidase (Bos taurus, UniProt P80457).
T1 construct: gene XDH
The assay can be described thus: spectrophotometric assay of uric acid formation at […] nm, bovine milk enzyme. The note with it: read-out: IC50 (nM) ± SEM. It counts as biochemical.

T1 sequence (P80457 2-1332): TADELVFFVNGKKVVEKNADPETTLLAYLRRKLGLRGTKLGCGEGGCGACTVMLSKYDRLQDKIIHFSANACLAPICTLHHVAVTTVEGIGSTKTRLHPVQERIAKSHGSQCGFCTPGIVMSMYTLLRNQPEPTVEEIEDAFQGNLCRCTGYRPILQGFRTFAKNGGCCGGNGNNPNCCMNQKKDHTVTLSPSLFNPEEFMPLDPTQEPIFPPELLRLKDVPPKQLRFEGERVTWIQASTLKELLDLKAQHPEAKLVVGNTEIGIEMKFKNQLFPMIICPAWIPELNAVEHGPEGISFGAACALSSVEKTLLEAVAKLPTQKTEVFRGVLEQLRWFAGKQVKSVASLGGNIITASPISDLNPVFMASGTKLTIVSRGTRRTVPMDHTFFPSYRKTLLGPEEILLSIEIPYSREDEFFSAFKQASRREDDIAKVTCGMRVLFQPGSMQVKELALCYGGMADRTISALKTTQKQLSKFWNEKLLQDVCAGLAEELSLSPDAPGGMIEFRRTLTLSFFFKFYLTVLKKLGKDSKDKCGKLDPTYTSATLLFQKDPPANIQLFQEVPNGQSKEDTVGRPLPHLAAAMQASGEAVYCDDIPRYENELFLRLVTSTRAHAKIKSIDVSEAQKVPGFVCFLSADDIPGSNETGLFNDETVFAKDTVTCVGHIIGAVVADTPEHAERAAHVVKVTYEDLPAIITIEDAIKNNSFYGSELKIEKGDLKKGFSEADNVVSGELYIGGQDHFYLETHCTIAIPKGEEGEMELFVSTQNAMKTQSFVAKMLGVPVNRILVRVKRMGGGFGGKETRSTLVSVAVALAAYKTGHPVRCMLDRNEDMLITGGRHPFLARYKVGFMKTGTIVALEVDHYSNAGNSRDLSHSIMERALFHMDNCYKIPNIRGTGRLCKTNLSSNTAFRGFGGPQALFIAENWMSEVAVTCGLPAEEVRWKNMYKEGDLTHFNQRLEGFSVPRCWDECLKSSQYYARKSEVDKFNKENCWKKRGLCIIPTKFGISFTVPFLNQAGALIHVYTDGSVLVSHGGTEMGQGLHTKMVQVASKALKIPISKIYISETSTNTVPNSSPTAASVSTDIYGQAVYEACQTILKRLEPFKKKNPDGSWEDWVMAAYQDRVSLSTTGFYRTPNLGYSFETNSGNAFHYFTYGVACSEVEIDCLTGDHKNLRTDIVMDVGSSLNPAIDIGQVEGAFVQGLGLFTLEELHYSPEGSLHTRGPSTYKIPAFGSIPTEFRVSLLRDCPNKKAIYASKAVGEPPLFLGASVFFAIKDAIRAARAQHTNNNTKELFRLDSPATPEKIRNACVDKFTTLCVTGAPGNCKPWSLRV

For `CC(C)=CCc1cccc(C2CC(=O)c3c(O)cc4c(c3O2)C=CC(C)(C)O4)c1O` (stereo in doubt) [compound 2, (2S) 5,2′-dihydroxy-6″,6″-dimethylchromeno-(7,8:2″,3″)-3′-prenylflavanone], the IC50 turned out to be 1.7 nM.

Regarding `CC1(C)C=Cc2c(cc(O)c3c2OC(c2ccccc2O)CC3=O)O1` (stereo in doubt) [compound 1, (2S) 5,2′-dihydroxy-6″,6″-dimethylchromeno-(7,8:2″,3″)-flavanone], the half-maximal inhibitory concentration (IC50) amounted to 0.5 nM.

The term IC50 denotes the concentration that gives 50% inhibition.
